Patent publication US20110212484A1, “In Vitro Model of Focal Ischemia” (priority 2008, published 2011)

Legend:
[1] = test system: rat brain slices; test: In vitro focal ischemia (focal OGD) in brain slices, TTC staining of infarct area; format: cell-based; conditions: 100 μM lidocaine added to OGD media, focally applied 2 hours at 100 μL/min, TTC stain
Text: In order to mimic in vivo focal ischemia in the present in vitro system, oxygen-glucose deprived (OGD) medium was focally applied to a small area (0.25-0.5 mm wide or 5-10% of cortex) within the cortex of a brain slice, or within a slice of liver or heart tissue. […] Oxygen was displaced from the media by bubbling with 95% N2 and 5% CO2. […] Nozzle of the microperfusion system was made from a 23 gauge stainless steel tube and was mounted to a micromanipulator in order to ensure accurate placement. Using the micromanipulator the nozzle was lowered until it was just touching the surface of the slice. […] In FIG. 1C, OGD solution was focally applied to the slice for 1 hour. […] In FIG. 1D, OGD solution was focally applied to the slice for 2 hours.

[2] = test system: cortical neurons adjacent to the region of focal OGD perfusion; test: Penumbra region of focal ischemia: intracellular recordings of membrane potential adjacent to the focal OGD perfusion; format: cell-based, rat
Text: In order to mimic in vivo focal ischemia in the present in vitro system, oxygen-glucose deprived (OGD) medium was focally applied to a small area (0.25-0.5 mm wide or 5-10% of cortex) within the cortex of a brain slice, or within a slice of liver or heart tissue. […] The OGD medium for liver and heart slices was deoxygenated, glucose-free Krebs solution. Oxygen was displaced from the media by bubbling with 95% N2 and 5% CO2. […] Nozzle of the microperfusion system was made from a 23 gauge stainless steel tube and was mounted to a micromanipulator in order to ensure accurate placement. Using the micromanipulator the nozzle was lowered until it was just touching the surface of the slice.
OGD solution was focally perfused onto rat brain slices bathed in oxygenated aCSF solution. […] A representative recording of membrane potential is depicted in FIG. 5A. Focal perfusion of OGD caused neurons outside the region of perfusion to progressively depolarize. When edaravone (100 μM) was added to the OGD media this depolarization was attenuated. This is reflected in the mean data (FIG. 5B). Percentage neuronal survival after 75 minutes is reflected in FIG. 5C. Neurons were considered “dead” if they became irreversibly depolarized to approximately 0 mV. The addition of 100 μM edaravone doubled neuronal survival from OGD. […] In FIG. 5 the * denotes p<0.05.

[3] = test system: cortical neurons; test: Focal glutamate perfusion of brain slices, intracellular recordings of membrane potential; conditions: aCSF containing 20 mM glutamate focally applied at 100 μL/min, neurons within the region of focal perfusion

CCN(CC)CC(=O)Nc1c(C)cccc1C [Lidocaine, lidocaine]
area of cell death caused by OGD [1]: reduced the area of cell death

CC1=NN(c2ccccc2)C(=O)C1 [edaravone]
progressive depolarization of neurons outside the region of perfusion ([2]; 100 μM edaravone added to OGD media, approximately 0.9 mm from focal perfusion): attenuated | neuronal survival from OGD ([2]; 100 μM edaravone, after 75 minutes, penumbra region): doubled

N[C@@H](CCC(=O)O)C(=O)O [glutamate]
membrane potential of neuron (depolarization) [3]: caused a rapid depolarization of the neuron
